Assay results as given in patent US6559167B1, “Prodrugs of proton pump inhibitors” (Regents of the University of California, priority 1998, dated 2003).
Where “and” joins values, the source holds several entries; their conditions need not be identical. Identical values can stand only once.

Tests used:
[1] = Solubility in aqueous buffer; assay type: physicochemical
[2] = Acid stability in 95% methanol containing 0.1N HCl; assay type: physicochemical; settings: after 2.25 hour in 95% methanol containing 0.1N HCl
Description: Acid stability of the compounds was assayed in 95% methanol containing 0.1N HCl. Approximately 90% of the compound of Example 1 was still present intact (without decomposition) after 2.25 hour in this solution.

gastric H,K-ATPase = biological target: T1, gastric H,K-ATPase (Sus scrofa, UniProt P19156); assay: Inhibition of ATPase activity using isolated hog gastric vesicles; assay type: biochemical; settings: for inhibition of enzyme activity after 80 minutes: after 80 minutes at pH 7.4, 37° C.; for inhibition of gastric H,K-ATPase activity initially (before hydrolysis): 10, 20, 50, and 100 μM, pH 7.4, 37° C.
T1 construct: from tissue; host or cells: hog gastric vesicles (stomach mucosa)
T1 sequence (P19156 2-1034 limits assumed): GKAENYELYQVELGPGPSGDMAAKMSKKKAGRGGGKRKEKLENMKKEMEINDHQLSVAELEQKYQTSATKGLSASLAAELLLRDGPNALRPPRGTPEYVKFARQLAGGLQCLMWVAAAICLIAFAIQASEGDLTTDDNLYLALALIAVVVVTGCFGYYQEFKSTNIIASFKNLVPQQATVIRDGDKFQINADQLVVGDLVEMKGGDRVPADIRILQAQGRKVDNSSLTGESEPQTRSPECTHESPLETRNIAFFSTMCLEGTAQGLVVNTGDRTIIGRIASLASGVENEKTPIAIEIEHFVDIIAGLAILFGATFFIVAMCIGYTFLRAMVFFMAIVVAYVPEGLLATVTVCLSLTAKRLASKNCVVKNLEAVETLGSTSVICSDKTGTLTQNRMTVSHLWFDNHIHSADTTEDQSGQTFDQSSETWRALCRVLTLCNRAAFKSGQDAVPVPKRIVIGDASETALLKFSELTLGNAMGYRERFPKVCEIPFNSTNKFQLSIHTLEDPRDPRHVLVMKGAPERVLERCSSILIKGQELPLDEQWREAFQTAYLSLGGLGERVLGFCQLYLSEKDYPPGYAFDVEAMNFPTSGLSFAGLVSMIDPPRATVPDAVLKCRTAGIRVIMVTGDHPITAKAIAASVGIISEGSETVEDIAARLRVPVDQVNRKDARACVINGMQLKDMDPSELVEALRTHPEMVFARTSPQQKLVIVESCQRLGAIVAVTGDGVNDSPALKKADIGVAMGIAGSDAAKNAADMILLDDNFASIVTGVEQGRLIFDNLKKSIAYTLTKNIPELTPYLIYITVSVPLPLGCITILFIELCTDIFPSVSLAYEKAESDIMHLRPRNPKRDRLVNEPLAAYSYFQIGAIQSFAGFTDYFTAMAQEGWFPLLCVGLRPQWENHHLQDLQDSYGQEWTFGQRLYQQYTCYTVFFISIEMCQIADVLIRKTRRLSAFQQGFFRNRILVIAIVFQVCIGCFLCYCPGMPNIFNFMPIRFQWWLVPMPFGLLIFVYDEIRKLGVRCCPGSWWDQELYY
T1 sequence (P18434 whole entry partner): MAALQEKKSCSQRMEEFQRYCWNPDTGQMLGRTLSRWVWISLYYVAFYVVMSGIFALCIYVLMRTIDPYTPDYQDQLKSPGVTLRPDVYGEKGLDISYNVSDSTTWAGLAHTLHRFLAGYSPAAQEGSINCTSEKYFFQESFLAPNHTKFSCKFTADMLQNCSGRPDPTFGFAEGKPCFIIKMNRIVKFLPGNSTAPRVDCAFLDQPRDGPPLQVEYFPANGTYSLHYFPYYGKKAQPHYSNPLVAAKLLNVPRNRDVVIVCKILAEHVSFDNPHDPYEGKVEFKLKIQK
Excerpt: By way of concrete examples, the following tests and results are described. […] This is consistent with the knowledge that the compounds obtained by hydrolysis e. g. LANSOPRAZOLE, OMEPRAZOLE, PANTOPRAZOLE and RABEPRAZOLE are well known H,K-ATPase inhibitors. […] Another good example is 2-(2-carbamoylmethoxy-4-{2-[4-(3-methoxypropoxy)-3-methyl pyridin-2-yl methylsulfinyl]benzimidazole-1-sulfonyl}phenoxy)acetamide. The half life of this compound dependes on pH. […] Based on these measured characteristics the compound 2-(2-carbamoylmethoxy-4-{2-[4-(3-methoxypropoxy)-3-methyl pyridin-2-yl methylsulfinyl]benzimidazole-1-sulfonyl}phenoxy)acetamide is expected to be well absorbed, and slowly release the parent RABEPRAZOLE in the blood, resulting in long-lasting in vivo activity. This compound can also be administered intravenously in an aqueous solution at pH 7.4 which solution may include 2-hydroxypropyl-β-cyclodextrin.
Inhibition of ATPase activity was measured using isolated hog gastric vesicles. The gastric H,K-ATPase (10 μg) was incubated at 37° C. in a solution (1 ml) composed of 0.25M sucrose, 20 mM Pipes/Tris, pH 7.4, 0.15M KCl, 2 mM MgCl2, valinomycin 2 μg/ml, and various concentration of compounds of the invention. At timed intervals, ATP was added (up to 2 mM) and incubated for 15 minutes and amount of released phosphate ion was measured. As a control experiment the prior art drug without a labile group on the benzimidazole nitrogen (e. g. OMEPRAZOLE or LANSOPRAZOLE) was used for measuring inhibition of enzyme activity.

[3] = tested on: gastric acid secretion of the conscious male rat; assay: Inhibitory effect on gastric acid secretion of the conscious male rat at timed intervals after oral administration; assay type: in vivo; settings: between 5.5-8.5 hours after oral administration; 10 μmole/kg; histamine and carbachol stimulated; male rat
[4] = tested on: gastric acid secretion (histamine-stimulated acid output), pylorus-ligated male rats; assay: Initial inhibition of gastric acid secretion after intraduodenal administration to pylorus-ligated rats; assay type: in vivo; settings: 10 μmole/kg, after pylorus ligation, histamine 30 mg/kg s.c., acid output over four hours, rat
Description: Histamine (30 mg/kg) was subcutaneously injected to stimulate acid production. The abdomen was surgically closed immediately. Four hours later the esophagus was ligated and the stomach was removed. Acid output was measured as described above.

[5] = Relative plasma concentration of OMEPRAZOLE in male rat after oral administration; settings: for Relative concentration of OMEPRAZOLE released in the plasma: male rat, examples 2 mg/kg, OMEPRAZOLE 4 mg/kg;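 on all read-outs here: Sprague-Dawley rats fasted one day with water available, dosed orally with prodrug compounds, OMEPRAZOLE quantified by HPLC in plasma from serial blood draws, control given OMEPRAZOLE itself orally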
Description: Male adult rats of the Sprague-Dawley strain were used for determining the concentration of OMEPRAZOLE in the plasma. All rats were derived of food but not of water for one day. Examples of compounds of the invention (2 mg/kg of rat weight) were orally administrated to male rats (weighing 250 g to 270 g) and blood samples (0.3 ml) were taken at timed intervals. Blood samples were centrifuged and plasma was taken out. Plasma was extracted with 0.5 ml of dichloromethane. Dichloromethane layer was evaporated by nitrogen/air blowing. The residual materials were dissolved in 0.5 ml of 40% acetonitrile in 10 mM phosphate buffer (pH 7.4). Amounts of OMEPRAZOLE were determined by HPLC analysis. As a control, OMEPRAZOLE (4 mg/kg of rat weight) was orally administrated.

[6] = after 5.75 hr hydrolysis at pH 7.4, 10 μM

Relative concentration of OMEPRAZOLE released in the plasma ([5]; 20 min after oral administration) [arbitrary unit] | Relative concentration of OMEPRAZOLE released in the plasma ([5]; 40 min after oral administration) [arbitrary unit] | Relative concentration of OMEPRAZOLE released in the plasma ([5]; 60 min after oral administration) [arbitrary unit] | Relative concentration of OMEPRAZOLE released in the plasma ([5]; 80 min after oral administration) [arbitrary unit] | time until OMEPRAZOLE has completely disappeared from the plasma ([5]; administrated to male rat (control)) [h] | inhibition at 10 µM (gastric H,K-ATPase; [6]) [%] | Molecule | solubility in aqueous buffer (comparison) [1] | compound still present intact (without decomposition) [2] | inhibition of enzyme activity after 80 minutes (gastric H,K-ATPase; 10 μM) [%] | inhibition of enzyme activity after 80 minutes (gastric H,K-ATPase; 50 μM) [%] | inhibition of gastric H,K-ATPase activity after 5.75 hr hydrolysis (gastric H,K-ATPase; [6]) | inhibition of gastric H,K-ATPase activity after 5.75 hr hydrolysis (gastric H,K-ATPase; after 5.75 hr hydrolysis at pH 7.4, 10 μM, listed as 1-benzenesulfonyl-5-methoxy-2-[(3,5-dimethyl-4-methoxy-2-pyridyl)methylsulfinyl], 10 µM) [%] | inhibition of gastric H,K-ATPase activity initially (before hydrolysis) (gastric H,K-ATPase) | inhibition of gastric H,K-ATPase activity initially (before hydrolysis) (gastric H,K-ATPase; listed as 1-benzenesulfonyl-5-methoxy-2-[(3,5-dimethyl-4-methoxy-2-pyridyl)methylsulfinyl]) | % inhibition of gastric acid secretion [3] | inhibition of histamine-stimulated acid output [4] [%]
 |  |  |  |  |  | 1-Benzenesulfonyl-5-methoxy-2-[(3,5-dimethyl-4-methoxy-2-pyridyl)methylsulfinyl]-1H-benzimidazole and 1-Benzensulfonyl-6-methoxy-2-[(3,5-dimethyl-4-methoxy-2-pyridyl)methylsulfinyl]-1H-benzimidazole [Example 1] | slightly higher solubility in aqueous buffer than the compound of Example 19 | Approximately 90% | 10 | 50 | the same level of inhibition | 91 | failed to inhibit enzyme activity | did not inhibit |  | 
28 | 4 | 2 | 1 | ≤ 1.5 | 91 | COc1ccc2[nH]c([S+]([O-])Cc3ncc(C)c(OC)c3C)nc2c1 (centres unmarked) [OMEPRAZOLE, 5-methoxy-2-[(3,5-dimethyl-4-methoxy-2-pyridyl)methylsulfinyl]-1H-benzimidazole, reference compound] |  |  |  |  | the same level of inhibition |  |  |  | 19.6% and 19.6 ± 3.9% | 54.6
